Test results reported in patent US20250057970A1, “TROP2 TARGETING ANTIBODY-DRUG CONJUGATE, AND PREPARATION METHOD AND USE THEREFOR” (priority 2020, published 2025).
Where two headings read alike, the source gives them in different places. Numbered stars: 1 amine (or outer) side, 2 acyl side, 3 side chain; on linkers, the order of the positions; unused ones are H or OH. Square brackets hold non-standard residues; d marks the D form. Peptide text beside a SMILES is read from it. * marks the point of attachment. Exatecan = CC[C@@]1(O)C(=O)OCc2c1cc1n(c2=O)Cc2c-1nc1cc(F)c(C)c3c1c2[C@@H](N*)CC3; Hexanoyl(6-maleimido) = O=C1C=CC(=O)N1CCCCCC(=O)*; NHCH2OCH2CO = O=C(COCN[*:1])[*:2]

Legend:
[1] = target: cathepsin B (Homo sapiens, UniProt P07858); settings: for speed of enzyme digestion: pH range 5.0 to 7.0
Excerpt: Samples were taken at different time points and entered into a high-performance liquid chromatography-mass spectrometry instrument. The external standard method (with DXD as the external standard) was used to determine the release percentage of the drug.

[2] = target: T1, Tumor-associated calcium signal transducer 2 (UniProt P09758 27-323, limits assumed); assay: cell-based or functional assay
T1 sequence (looked up): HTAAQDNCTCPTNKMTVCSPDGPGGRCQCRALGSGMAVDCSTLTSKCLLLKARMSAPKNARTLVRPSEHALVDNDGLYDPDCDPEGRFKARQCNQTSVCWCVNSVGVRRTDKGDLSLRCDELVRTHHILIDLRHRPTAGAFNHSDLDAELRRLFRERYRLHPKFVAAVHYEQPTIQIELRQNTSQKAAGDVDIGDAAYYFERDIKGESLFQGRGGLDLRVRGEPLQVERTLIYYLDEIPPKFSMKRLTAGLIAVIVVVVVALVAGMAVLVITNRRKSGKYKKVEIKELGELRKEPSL

For `CC[C@@]1(O)C(=O)OCc2c1cc1n(c2=O)Cc2c-1nc1cc(F)c(C)c3c1c2[C@@H](NC(=O)COCN(CCS(C)(=O)=O)C(=O)OCc1ccc(NC(=O)[C@H](C)NC(=O)[C@@H](NC(=O)CCCCCN2C(=O)C=CC2=O)C(C)C)cc1)CC3` [LE14], the “Percentage of drug release in the sample” value ([1]; pH 5.0, 0 h) was 13.82%, the “Percentage of drug release in the sample” value ([1]; pH 5.0, 1 h) was 96.0% and the “Percentage of drug release in the sample” value ([1]; pH 5.0, 2 h) was 98.35%. The “Percentage of drug release in the sample” value ([1]; pH 5.0, 3 h) was 99.12%, the “Percentage of drug release in the sample” value ([1]; pH 5.0, 4 h) was 99.21% and the “Percentage of drug release in the sample” value ([1]; pH 5.0, 5 h) was 99.45%. For the same molecule, the “Percentage of drug release in the sample” value ([1]; pH 5.0, 6 h) was 98.23%, the “Percentage of drug release in the sample” value ([1]; pH 6.0, 0 h) was 14.32% and the “Percentage of drug release in the sample” value ([1]; pH 6.0, 1 h) was 96.12%. For the same molecule, the “Percentage of drug release in the sample” value ([1]; pH 6.0, 2 h) was 96.75%, the “Percentage of drug release in the sample” value ([1]; pH 6.0, 3 h) was 98.52% and the “Percentage of drug release in the sample” value ([1]; pH 6.0, 4 h) was 98.45%. For the same molecule, the “Percentage of drug release in the sample” value ([1]; pH 6.0, 5 h) was 98.92%, the “Percentage of drug release in the sample” value ([1]; pH 6.0, 6 h) was 99.15% and the “Percentage of drug release in the sample” value ([1]; pH 7.0, 0 h) was 16.59%. The “Percentage of drug release in the sample” value ([1]; pH 7.0, 1 h) was 98.32%, the “Percentage of drug release in the sample” value ([1]; pH 7.0, 2 h) was 98.45% and the “Percentage of drug release in the sample” value ([1]; pH 7.0, 3 h) was 99.12%. The “Percentage of drug release in the sample” value ([1]; pH 7.0, 4 h) was 99.12%, the “Percentage of drug release in the sample” value ([1]; pH 7.0, 5 h) was 99.87% and the “Percentage of drug release in the sample” value ([1]; pH 7.0, 6 h) was 99.47%. The “speed of enzyme digestion” value [1] was “quickly enzymatically digested”.

`CC[C@@]1(O)C(=O)OCc2c1cc1n(c2=O)Cc2c-1nc1cc(F)c(C)c3c1c2[C@@H](NC(=O)COCNC(=O)CNC(=O)[C@H](Cc1ccccc1)NC(=O)CNC(=O)CNC(=O)CCCCCN1C(=O)C=CC1=O)CC3` [GGFG-Dxd, reference compound] ({Hexanoyl(6-maleimido)}-GGFG[NHCH2OCH2CO]-Exatecan) was tested, and the “speed of enzyme digestion” value [1] was “slow speed of enzyme digestion”.

B1: FDA018-LE12 (antibody, human IgG1, kappa, V domains shown)
VH: QVQLQQSGSELKKPGASVKVSCKASGYTFTNYGMNWVKQAPGQGLKWMGWINTYTGEPTYTDDFKGRFAFSLDTSVSTAYLQISSLKADDTAVYFCARGGFGSSYWYFDVWGQGSLVTVSS
VL: DIQLTQSPSSLSASVGDRVSITCKASQDVSIAVAWYQQKPGKAPKLLIYSASYRYTGVPDRFSGSGSGTDFTLTISSLQPEDFAVYYCQQHYITPLTFGAGTKVEIKR
modifications: linker-drug LE12 (Dxd payload) coupled to cysteine sulfhydryl groups after reduction of the interchain disulfide bonds; DAR 3.90 for the whole antibody; sites not stated
In the case of B1, the “IC50 (nM), in vitro killing activity, BXPC3 Cell” value (from here on “IC50 (nM) … BXPC3 Cell”) [2] is reported as 0.68 nM, the “IC50 (nM), in vitro killing activity, MDA-MB-468 Cell” value (“IC50 (nM) … MDA-MB-468 Cell” below) [2] is reported as 1.03 nM and the “IC50 (nM), in vitro killing activity, NCI-N87 Cell” value (“IC50 (nM) … NCI-N87 Cell” for short) [2] is reported as 1.12 nM.

B2: FDA018-LE15 (antibody, human IgG1, kappa, V domains shown)
VH: QVQLQQSGSELKKPGASVKVSCKASGYTFTNYGMNWVKQAPGQGLKWMGWINTYTGEPTYTDDFKGRFAFSLDTSVSTAYLQISSLKADDTAVYFCARGGFGSSYWYFDVWGQGSLVTVSS
VL: DIQLTQSPSSLSASVGDRVSITCKASQDVSIAVAWYQQKPGKAPKLLIYSASYRYTGVPDRFSGSGSGTDFTLTISSLQPEDFAVYYCQQHYITPLTFGAGTKVEIKR
modifications: linker-drug LE15 coupled to cysteine sulfhydryl groups after reduction of the interchain disulfide bonds; DAR 4.12 for the whole antibody; sites not stated
In the case of B2, the “IC50 (nM) … BXPC3 Cell” value [2] is reported as 0.96 nM, the “IC50 (nM) … MDA-MB-468 Cell” value [2] is reported as 0.93 nM and the “IC50 (nM) … NCI-N87 Cell” value [2] is reported as 0.98 nM.

B3: FDA018-LE16 (antibody, human IgG1, kappa, V domains shown)
VH: QVQLQQSGSELKKPGASVKVSCKASGYTFTNYGMNWVKQAPGQGLKWMGWINTYTGEPTYTDDFKGRFAFSLDTSVSTAYLQISSLKADDTAVYFCARGGFGSSYWYFDVWGQGSLVTVSS
VL: DIQLTQSPSSLSASVGDRVSITCKASQDVSIAVAWYQQKPGKAPKLLIYSASYRYTGVPDRFSGSGSGTDFTLTISSLQPEDFAVYYCQQHYITPLTFGAGTKVEIKR
modifications: linker-drug LE16 coupled to cysteine sulfhydryl groups after reduction of the interchain disulfide bonds; DAR 4.03 for the whole antibody; sites not stated
With B3 the “IC50 (nM) … BXPC3 Cell” value [2] was 1.58 nM, the “IC50 (nM) … MDA-MB-468 Cell” value [2] was 1.64 nM and the “IC50 (nM) … NCI-N87 Cell” value [2] was 1.35 nM.

B4: FDA018-LE17 (antibody, human IgG1, kappa, V domains shown)
VH: QVQLQQSGSELKKPGASVKVSCKASGYTFTNYGMNWVKQAPGQGLKWMGWINTYTGEPTYTDDFKGRFAFSLDTSVSTAYLQISSLKADDTAVYFCARGGFGSSYWYFDVWGQGSLVTVSS
VL: DIQLTQSPSSLSASVGDRVSITCKASQDVSIAVAWYQQKPGKAPKLLIYSASYRYTGVPDRFSGSGSGTDFTLTISSLQPEDFAVYYCQQHYITPLTFGAGTKVEIKR
modifications: linker-drug LE17 coupled to cysteine sulfhydryl groups after reduction of the interchain disulfide bonds; DAR 3.98 for the whole antibody; sites not stated
In the case of B4, the “IC50 (nM) … BXPC3 Cell” value [2] is reported as 0.62 nM, the “IC50 (nM) … MDA-MB-468 Cell” value [2] is reported as 0.82 nM and the “IC50 (nM) … NCI-N87 Cell” value [2] is reported as 1.12 nM.

B5: FDA018-LE18 (antibody, human IgG1, kappa, V domains shown)
VH: QVQLQQSGSELKKPGASVKVSCKASGYTFTNYGMNWVKQAPGQGLKWMGWINTYTGEPTYTDDFKGRFAFSLDTSVSTAYLQISSLKADDTAVYFCARGGFGSSYWYFDVWGQGSLVTVSS
VL: DIQLTQSPSSLSASVGDRVSITCKASQDVSIAVAWYQQKPGKAPKLLIYSASYRYTGVPDRFSGSGSGTDFTLTISSLQPEDFAVYYCQQHYITPLTFGAGTKVEIKR
modifications: linker-drug LE18 coupled to cysteine sulfhydryl groups after reduction of the interchain disulfide bonds; DAR 3.96 for the whole antibody; sites not stated
In the case of B5, the “IC50 (nM) … MDA-MB-468 Cell” value [2] is reported as 0.86 nM.
